The record followed here is patent publication US7265152B2 (ViroPharma Incorporated, priority 2002, dated 2007).

Where two headings read alike, the source gives them in different places.

Test [1] concerns HCV replicon (BB7 sequence) in Huh-7-Clone A cells. Kind of test: HCV replicon assay: ELISA of NS5A protein in replicon-containing cells (Inhibition of Viral RNA Replication). Conditions: read-out: Replicon. The test is classed as cell-based. The method, boiled down: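 EC50 taken from an 8-point serially diluted dose curve, with NS5A level as read-out: fixed cells probed with primary monoclonal and HRP-conjugated secondary, TMB developed 30 min, OD 650 nm. Compound exposure 72 h in Huh-7-Clone A replicon cells (BB7 sequence).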
In general terms: In antiviral work, replicon cells carry a viral genome segment that copies itself.

For a further test, the target named is T1, HCV NS5B (Hepatitis C virus genotype 1b, UniProt Q9WMX2).
T1 construct: fusion protein, of which the carboxyl terminal 21 amino acids were removed to enhance its solubility; His tag (GSHHHHHH); made in house; host or cells: E. coli
In words: Inhibition of viral RNA-dependent RNA polymerase (RdRp), in vitro biochemical assay. The note with it: read-out: HCV pol-BB7 IC50. More on the design: species or system HCV genotype 1b virus (BB7). The gist of the method: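 IC50 values are the concentrations that halve in vitro RNA synthesis by HCV NS5B polymerase. The enzyme was a C-terminally truncated (Δ21), His-tagged genotype 1b (BB7 consensus) protein purified from E. coli.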

Setting [2] is: Hepatitis C virus, HCV replicon, range of EC50.
The mark [3] stands for this setting: HCV NS5B RdRp, BB7, reported as range class.
Setting [4] is: Hepatitis C virus, Huh-7-Clone A, NS5A ELISA, 72-hour incubation, ranges of EC50.
Where [5] appears, read: purified His-tagged NS5B (BB7), carboxyl terminal 21 amino acids removed.
The mark [6] stands for this setting: HCV NS5B polymerase, BB7 (genotype 1b), values given as range classes A-D.
Where [7] appears, read: Hepatitis C virus, ranges of EC50 in HCV replicon assay.
Setting [8] is: Hepatitis C virus, HCV replicon assay, ranges of EC50.
Where [9] appears, read: HCV NS5B RdRp, BB7, class symbols A-D.
The mark [10] stands for this setting: Hepatitis C virus, HCV replicon assay, ranges of 50% effective concentration (EC50).

Turning to `CNC(=O)c1c(-c2ccc(F)cc2)oc2cc(N3CCOCC3)c(OCc3nccn3Cc3ccccc3)cc12` [Example 216, 5-(1-Benzyl-1H-imidazol-2-ylmethoxy)-2-(4-fluoro-phenyl)-6-morpholin-4-yl-benzofuran-3-carboxylic acid methylamide], in test [1] (setting [2]), the EC50 was < 1000 nM. Besides, at HCV NS5B (setting [3]), the IC50 (as a rule, the concentration that inhibits the measured activity by half) is ≤ 500 nM.

As to `CNC(=O)c1c(-c2ccc(F)cc2)oc2cc(N)c(O)cc12` [Example 182, 6-Ainino-2-(4-fluoro-phenyl)-5-hydroxy-benzofuran-3-carboxylic acid methylamide], the EC50 in test [1] (setting [2]) was < 30000 nM. The IC50 at HCV NS5B (setting [3]) was in the range of 500 to 5000 nM.

With `CNC(=O)c1c(-c2ccccc2)oc2ccc(OCc3ccccc3-c3ccccc3)cc12` [Example 53, 5-(Biphenyl-2-ylmethoxy)-2-phenyl-benzofuran-3-carboxylic acid methylamide], the EC50 in test [1] (setting [4]) was < 30000 nM. Moreover, the IC50 on HCV NS5B (setting [5]) is 5000 to 30000 nM.

As for `CNC(=O)COc1cc2c(C(=O)NC)c(-c3ccc(F)cc3)oc2cc1N(C)S(C)(=O)=O` [Example 421, 2-(4-Fluoro-phenyl)-6-(methanesulfonyl-methyl-amino)-5-methylcarbamoyl-methoxy-benzofuran-3-carboxylic acid methylamide], the EC50 in test [1] (HCV replicon assay, ranges of 50% effective concentration (EC50)) is < 1000 nM. The half-maximal inhibitory concentration (IC50) at HCV NS5B (setting [6]) is ≤ 500 nM.

With `CNC(=O)c1c(-c2ccc(F)cc2)oc2cc(N(CC3CC3)S(C)(=O)=O)c(OC(C)C)cc12` [Example 137, 6-(Cyclopropylmethyl-methanesulfonyl-amino)-2-(4-fluoro-phenyl)-5-isopropoxy-benzofuran-3-carboxylic acid methylamide], in test [1] (setting [7]), the EC50 was < 1000 nM. The half-maximal inhibitory concentration (IC50) on HCV NS5B (HCV NS5B RdRp, BB7 genotype 1b) was ≤ 500 nM.

As for `CNC(=O)c1c(-c2ccccc2)oc2ccc(C(C)(C)C)cc12` [Example 74, 5-tert-Butyl-2-phenyl-benzofuran-3-carboxylic acid methylamide], in test [1] (setting [4]), the EC50 is < 10000 nM. Also, the IC50 at HCV NS5B (setting [5]) was ≤ 500 nM.

For the compound `CNC(=O)c1c(-c2ccc(F)cc2)oc2cc(-c3cncs3)c(OC(C)C)cc12` [Example 227, 2-(4-Fluoro-phenyl)-5-isopropoxy-6-thiazol-5-yl-benzofuran-3-carboxylic acid methylamide], in test [1] (setting [2]), the EC50 is < 1000 nM. Besides, the concentration for half-maximal inhibition (IC50) at HCV NS5B (setting [3]) was ≤ 500 nM.

`CNC(=O)c1c(-c2ccc(F)cc2)oc2cc(N)c(OC)cc12` [Example 17, 6-Amino-2-(4-fluoro-phenyl)-5-methoxy-benzofuran-3-carboxylic acid methylamide]: in test [1] (setting [4]), the EC50 is < 10000 nM. Besides, at HCV NS5B (setting [5]), the 50% inhibitory concentration (IC50) was 500 to 5000 nM.

On to `CNC(=O)c1c(-c2ccc(F)cc2)oc2cc(N(CCF)S(C)(=O)=O)c(OC)cc12` [Example 307, 6-[(2-Fluoro-ethyl)-methanesulfonyl-amino]-2-(4-fluoro-phenyl)-5-methoxy-benzofuran-3-carboxylic acid methylamide], for which, in test [1] (setting [8]), the EC50 is < 1000 nM. Moreover, the IC50 on HCV NS5B (setting [9]) was ≤ 500 nM.

Regarding `CNC(=O)c1c(-c2ccc(F)cc2)oc2cc(N3CCOCC3)c(OCc3nn(C)cc3Cl)cc12` [Example 228, 5-(4-Chloro-1-methyl-1H-pyrazol-3-ylmethoxy)-2-(4-fluoro-phenyl)-6-morpholin-4-yl-benzofuran-3-carboxylic acid methylamide], the EC50 in test [1] (setting [2]) was < 1000 nM. On HCV NS5B (setting [3]), the IC50 is ≤ 500 nM.

For the compound `CCOC(=O)c1csc(COc2cc3c(C(=O)NC)c(-c4ccc(F)cc4)oc3cc2N(C)S(C)(=O)=O)n1` [Example 392, 2-[2-(4-Fluoro-phenyl)-6-(methanesulfonyl-methyl-amino)-3-methylcarbamoyl-benzofuran-5-yloxymethyl]-thiazole-4-carboxylic acid ethyl ester], the EC50 in test [1] (setting [10]) is < 1000 nM. Besides, at HCV NS5B (setting [6]), the half-inhibitory concentration (IC50) is ≤ 500 nM.

For “2-(4-Fluoro-phenyl)-6-(1H-imidazol-4-yl)-5-methoxy-benzofuran-3-carboxylic acid methylamide [Example 295]”, the EC50 in test [1] (HCV replicon assay, ranges of EC50) was < 10000 nM. For the same compound, the IC50 at HCV NS5B (setting [9]) was ≤ 500 nM.

`CNC(=O)c1c(-c2ccc(F)cc2)oc2cc(N(C)S(C)(=O)=O)c(OC(C)C)cc12` [Example 111, 2-(4-Fluoro-phenyl)-5-isopropoxy-6-(methanesulfonyl-methyl-amino)-benzofuran-3-carboxylic acid methylamide]: the EC50 in test [1] (setting [7]) was < 1000 nM. On HCV NS5B (HCV NS5B RdRp, BB7 genotype 1b), the IC50 was ≤ 500 nM.

As to `CNC(=O)c1c(-c2ccc(F)cc2)oc2cc(N3CCOCC3)c(OCC(C)O)cc12` (stereo not shown) [Example 252, 2-(4-Fluoro-phenyl)-5-(2-hydroxy-propoxy)-6-morpholin-4-yl-benzofuran-3-carboxylic acid methylamide], the EC50 in test [1] (setting [8]) is < 10000 nM. Also, the IC50 at HCV NS5B (setting [9]) fell in the range of 500 to 5000 nM.

As for `CNC(=O)c1c(-c2ccc(F)cc2)oc2cc(N3CCN(C)CC3)c(OC(C)C)cc12` [Example 132, 2-(4-Fluoro-phenyl)-5-isopropoxy-6-(4-methyl-piperazin-1-yl)-benzofuran-3-carboxylic acid methylamide], the EC50 in test [1] (setting [7]) is > 30000 nM. On HCV NS5B (HCV NS5B RdRp, BB7 genotype 1b), the IC50 lay within 5000 to 30000 nM.

On to `CNC(=O)c1c(-c2ccc(F)cc2)oc2cc(-c3c(C)n[nH]c3C)c(OC(C)C)cc12` [Example 246, 6-(3,5-Dimethyl-1H-pyrazol-4-yl)-2-(4-fluoro-phenyl)-5-isopropoxy-benzofuran-3-carboxylic acid methylamide], for which the EC50 in test [1] (setting [2]) was < 1000 nM. The half-inhibitory concentration (IC50) at HCV NS5B (setting [3]) was ≤ 500 nM.

With `CNC(=O)c1c(-c2ccc(F)cc2)oc2cc(N(Cc3nc(C(=O)O)cs3)S(C)(=O)=O)c(OC(C)C)cc12` [Example 292, 2-({[2-(4-Fluoro-phenyl)-5-isopropoxy-3-methylcarbamoyl-benzofuran-6-yl]-methanesulfonyl-amino}-methyl)-thiazole-4-carboxylic acid], the EC50 in test [1] (setting [8]) is > 100000 nM. In addition, the IC50 on HCV NS5B (setting [9]) is ≤ 500 nM.

For the compound `CNC(=O)c1c(-c2ccc(F)cc2)oc2cc(N(C)S(C)(=O)=O)c(OCC(C)O)cc12` (stereo not shown) [Example 370, 2-(4-Fluoro-phenyl)-5-(2-hydroxy-propoxy)-6-(methanesulfonyl-methyl-amino)-benzofuran-3-carboxylic acid methylamide], in test [1] (setting [8]), the EC50 was < 1000 nM. Moreover, the 50% inhibitory concentration (IC50) at HCV NS5B (HCV NS5B RdRp, BB7, activity class) was ≤ 500 nM.

For the compound `CNC(=O)c1c(-c2ccc(F)cc2)oc2cc(C3CNC(=O)C3C(=O)NC)c(OC)cc12` (stereo not shown) [Example 278, 4-[2-(4-Fluoro-phenyl)-5-methoxy-3-methylcarbamoyl-benzofuran-6-yl]-2-oxo-pyrrolidine-3-carboxylic acid methylamide], the EC50 in test [1] (setting [8]) was < 10000 nM. On HCV NS5B (setting [9]), the 50% inhibitory concentration (IC50) is ≤ 500 nM.

As to `CNC(=O)c1c(-c2ccc(F)cc2)oc2cc(N3CCOCC3)c(OCC(C)(C)O)cc12` [Example 250, 2-(4-Fluoro-phenyl)-5-(2-hydroxy-2-methyl-propoxy)-6-morpholin-4-ylbenzofuran-3-carboxylic acid methylamide], the EC50 in test [1] (setting [8]) was < 10000 nM. In addition, the IC50 on HCV NS5B (setting [9]) was 500 to 5000 nM.

For `CNC(=O)c1c(-c2ccc(F)cc2)oc2cc(C3CCOC3)c(OC)cc12` (stereo not shown) [Example 442, 2-(4-Fluoro-phenyl)-5-methoxy-6-(tetrahydro-furan-3-yl)-benzofuran-3-carboxylic acid methylamide], in test [1] (setting [8]), the EC50 was < 1000 nM. At HCV NS5B (HCV NS5B RdRp, BB7 (genotype 1b), reported as class symbols), the IC50 is ≤ 500 nM.

With `CNC(=O)c1c(-c2ccc(F)cc2)oc2cc(N(CCN3CCOCC3)S(C)(=O)=O)c(OC(C)C)cc12` [Example 191, 2-(4-Fluoro-phenyl)-5-isopropoxy-6-[methanesulfonyl-(2-morpholin-4-yl-ethyl)-amino]-benzofuran-3-carboxylic acid methylamide], the EC50 in test [1] (setting [2]) is < 1000 nM. The IC50 on HCV NS5B (setting [3]) is ≤ 500 nM.

Regarding `CNC(=O)c1c(-c2ccc(F)cc2)oc2cc(-c3c(C)noc3C)c(OCc3nnnn3C)cc12` [Example 427, 6-(3,5-Dimethyl-isoxazol-4-yl)-2-(4-fluoro-phenyl)-5-(1-methyl-1H-tetrazol-5-ylmethoxy)-benzofuran-3-carboxylic acid methylamide], the EC50 in test [1] (setting [10]) was < 1000 nM. The concentration for half-maximal inhibition (IC50) at HCV NS5B (setting [6]) is ≤ 500 nM.

For the compound `CNC(=O)c1c(-c2ccc(F)cc2)oc2cc(C=O)c(OC(C)C)cc12` [Example 160, 2-(4-Fluoro-phenyl)-6-formyl-5-isopropoxy-benzofuran-3-carboxylic acid methylamide], in test [1] (setting [7]), the EC50 is < 30000 nM. Besides, the half-inhibitory concentration (IC50) on HCV NS5B (HCV NS5B RdRp, BB7 genotype 1b) was ≤ 500 nM.

For the compound `CNC(=O)c1c(-c2ccco2)oc2ccc(OC)cc12` [Example 68, 2-Furan-2-yl-5-methoxy-benzofuran-3-carboxylic acid methylamide], the EC50 in test [1] (setting [4]) was < 30000 nM. Moreover, the half-inhibitory concentration (IC50) at HCV NS5B (setting [5]) lay in the range of 500 to 5000 nM.

`CNC(=O)c1c(-c2ccc(F)cc2)oc2cc(-c3noc(C)n3)c(OC(C)C)cc12` [Example 198, 2-(4-Fluoro-phenyl)-5-isopropoxy-6-(5-methyl-[1,2,4]oxadiazol-3-yl)-benzofuran-3-carboxylic acid methylamide]: in test [1] (setting [2]), the EC50 is < 1000 nM. Further, on HCV NS5B (setting [3]), the half-inhibitory concentration (IC50) was ≤ 500 nM.
